In PubChem BioAssay (NCI):
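How tested: cells in 96-well plates exposed to compound for 48 hours at five concentrations. GI50: concentration for 50% inhibition of growth. TGI denotes the concentration required for complete inhibition of growth.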

Tests used:
Assay in all cases: growth of human tumour cells (NCI), 48 h
TK-10 renal = system: TK-10 renal
KM12 colon = system: KM12 colon
SF-295 CNS = system: SF-295 CNS
DU-145 prostate = system: DU-145 prostate
LOX IMVI melanoma = system: LOX IMVI melanoma
A549 NSCLC = system: A549 NSCLC
OVCAR-4 ovarian = system: OVCAR-4 ovarian
NCI-H23 lung = system: NCI-H23 lung
HT29 colon = system: HT29 colon
HCT-116 colon = system: HCT-116 colon
RPMI-8226 leukemia = system: RPMI-8226 leukemia
A498 renal = system: A498 renal
MALME-3M melanoma = system: MALME-3M melanoma
NCI-H522 lung = system: NCI-H522 lung
HCT-15 colon = system: HCT-15 colon
MCF7 breast = system: MCF7 breast
RXF 393 renal = system: RXF 393 renal
SK-MEL-2 melanoma = system: SK-MEL-2 melanoma
SF-539 CNS = system: SF-539 CNS
COLO 205 colon = system: COLO 205 colon
M14 melanoma = system: M14 melanoma
NCI-H460 lung = system: NCI-H460 lung
NCI-H226 lung = system: NCI-H226 lung
NCI/ADR-RES ovarian = system: NCI/ADR-RES ovarian
SW-620 colon = system: SW-620 colon
OVCAR-8 ovarian = system: OVCAR-8 ovarian
MDA-MB-435 = system: MDA-MB-435
SNB-75 CNS = system: SNB-75 CNS
PC-3 prostate = system: PC-3 prostate
SR leukemia = system: SR leukemia
MDA-MB-231 breast = system: MDA-MB-231 breast
HOP-62 NSCLC = system: HOP-62 NSCLC
SK-OV-3 ovarian = system: SK-OV-3 ovarian
HOP-92 NSCLC = system: HOP-92 NSCLC
UO-31 renal = system: UO-31 renal
BT-549 breast = system: BT-549 breast
UACC-257 melanoma = system: UACC-257 melanoma
SF-268 CNS = system: SF-268 CNS
IGROV1 ovarian = system: IGROV1 ovarian
CAKI-1 renal = system: CAKI-1 renal
HL-60(TB) leukemia = system: HL-60(TB) leukemia
OVCAR-5 ovarian = system: OVCAR-5 ovarian
SNB-19 CNS = system: SNB-19 CNS
ACHN renal = system: ACHN renal
T-47D breast = system: T-47D breast
EKVX NSCLC = system: EKVX NSCLC
786-0 renal = system: 786-0 renal
OVCAR-3 ovarian = system: OVCAR-3 ovarian
CCRF-CEM leukemia = system: CCRF-CEM leukemia
HS 578T breast = system: HS 578T breast
U251 CNS = system: U251 CNS
MOLT-4 leukemia = system: MOLT-4 leukemia
UACC-62 melanoma = system: UACC-62 melanoma
SK-MEL-5 melanoma = system: SK-MEL-5 melanoma
SN12C renal = system: SN12C renal
SK-MEL-28 melanoma = system: SK-MEL-28 melanoma
K-562 leukemia = system: K-562 leukemia

## COc1cc2nc3cc([N+](=O)[O-])ccc3c(NCCNCC(C)(C)O)c2cc1OC
TK-10 renal
  GI50: 1.7 µM
  TGI: 5.43 µM
KM12 colon
  GI50: 0.698 µM
  TGI: 2.97 µM
SF-295 CNS
  GI50: 0.517 µM
  TGI: 3.13 µM
DU-145 prostate
  GI50: 0.44 µM
  TGI: 2.34 µM
LOX IMVI melanoma
  GI50: 0.715 µM
  TGI: 2.51 µM
A549 NSCLC
  GI50: 1.22 µM
  TGI: 5.64 µM
OVCAR-4 ovarian
  GI50: 0.672 µM
  TGI: 2.99 µM
NCI-H23 lung
  GI50: 0.629 µM
  TGI: 3.43 µM
HT29 colon
  GI50: 0.327 µM
  TGI: 1.4 µM
HCT-116 colon
  GI50: 0.368 µM
  TGI: 1.54 µM
RPMI-8226 leukemia
  GI50: 1.49 µM
  TGI: 5.8 µM
A498 renal
  GI50: 1.83 µM
  TGI: 3.63 µM
MALME-3M melanoma
  GI50: 0.622 µM
  TGI: 1.97 µM
NCI-H522 lung
  GI50: 0.256 µM
  TGI: 1.04 µM
HCT-15 colon
  GI50: 3.4 µM
  TGI: 12.8 µM
MCF7 breast
  GI50: 0.372 µM
  TGI: 2.04 µM
RXF 393 renal
  GI50: 1.07 µM
  TGI: 2.87 µM
SK-MEL-2 melanoma
  GI50: 0.432 µM
  TGI: 1.75 µM
SF-539 CNS
  GI50: 0.566 µM
  TGI: 2.12 µM
COLO 205 colon
  GI50: 0.37 µM
  TGI: 1.54 µM
M14 melanoma
  GI50: 1.29 µM
  TGI: 3.05 µM
NCI-H460 lung
  GI50: 0.377 µM
  TGI: 1.47 µM
NCI-H226 lung
  GI50: 1.28 µM
  TGI: 4.05 µM
NCI/ADR-RES ovarian
  GI50: 5.68 µM
  TGI: 20.5 µM
SW-620 colon
  GI50: 0.54 µM
  TGI: 4.07 µM
OVCAR-8 ovarian
  GI50: 0.769 µM
  TGI: 4.48 µM
MDA-MB-435
  GI50: 0.6 µM
  TGI: 1.93 µM
SNB-75 CNS
  GI50: 0.608 µM
  TGI: 2.05 µM
PC-3 prostate
  GI50: 0.581 µM
  TGI: 2.47 µM
SR leukemia
  GI50: 0.238 µM
  TGI: 3.04 µM
MDA-MB-231 breast
  GI50: 0.451 µM
  TGI: 2.41 µM
HOP-62 NSCLC
  GI50: 0.953 µM
  TGI: 3.26 µM
SK-OV-3 ovarian
  GI50: 2.01 µM
  TGI: 6.51 µM
HOP-92 NSCLC
  GI50: 0.503 µM
  TGI: 2.43 µM
UO-31 renal
  GI50: 1.85 µM
  TGI: 5.93 µM
BT-549 breast
  GI50: 1.84 µM
  TGI: 4.14 µM
UACC-257 melanoma
  GI50: 1.94 µM
  TGI: 4.19 µM
SF-268 CNS
  GI50: 0.491 µM
  TGI: 2.54 µM
IGROV1 ovarian
  GI50: 0.457 µM
  TGI: 2.16 µM
CAKI-1 renal
  GI50: 2.42 µM
  TGI: 11 µM
HL-60(TB) leukemia
  GI50: 2.83 µM
  TGI: 7.49 µM
OVCAR-5 ovarian
  GI50: 2.22 µM
  TGI: 8.87 µM
SNB-19 CNS
  GI50: 0.472 µM
  TGI: 2.83 µM
ACHN renal
  GI50: 0.657 µM
  TGI: 4.19 µM
T-47D breast
  GI50: 0.437 µM
  TGI: 2.91 µM
EKVX NSCLC
  GI50: 1.72 µM
  TGI: 5.7 µM
786-0 renal
  GI50: 1.51 µM
  TGI: 4.04 µM
OVCAR-3 ovarian
  GI50: 0.373 µM
  TGI: 1.3 µM
CCRF-CEM leukemia
  GI50: 0.573 µM
  TGI: 5.13 µM
HS 578T breast
  GI50: 1.75 µM
  TGI: 6.15 µM
U251 CNS
  GI50: 0.533 µM
  TGI: 2.31 µM
MOLT-4 leukemia
  GI50: 0.354 µM
  TGI: 10.7 µM

## COc1cc2nc(-c3cccs3)[nH]c(=O)c2cc1OC
TK-10 renal
  TGI: > 100 µM
KM12 colon
  TGI: > 100 µM
SF-295 CNS
  TGI: > 100 µM
DU-145 prostate
  TGI: > 100 µM
LOX IMVI melanoma
  TGI: > 100 µM
A549 NSCLC
  TGI: > 100 µM
OVCAR-4 ovarian
  TGI: > 100 µM
NCI-H23 lung
  TGI: > 100 µM
HT29 colon
  TGI: > 100 µM
HCT-116 colon
  TGI: > 100 µM
RPMI-8226 leukemia
  TGI: > 100 µM
A498 renal
  TGI: > 100 µM
MALME-3M melanoma
  TGI: > 100 µM
NCI-H522 lung
  TGI: > 100 µM
HCT-15 colon
  TGI: > 100 µM
UACC-62 melanoma
  TGI: > 100 µM
MCF7 breast
  TGI: > 100 µM
RXF 393 renal
  TGI: > 100 µM
SK-MEL-2 melanoma
  TGI: > 100 µM
SF-539 CNS
  TGI: > 100 µM
COLO 205 colon
  TGI: > 100 µM
SK-MEL-5 melanoma
  TGI: > 100 µM
M14 melanoma
  TGI: > 100 µM
NCI-H460 lung
  TGI: > 100 µM
NCI-H226 lung
  TGI: > 100 µM
SN12C renal
  TGI: > 100 µM
NCI/ADR-RES ovarian
  TGI: > 100 µM
SW-620 colon
  TGI: > 100 µM
OVCAR-8 ovarian
  TGI: > 100 µM
MDA-MB-435
  TGI: > 100 µM
SNB-75 CNS
  TGI: > 100 µM
PC-3 prostate
  TGI: > 100 µM
SR leukemia
  TGI: 58.4 µM
MDA-MB-231 breast
  TGI: > 100 µM
HOP-62 NSCLC
  TGI: > 100 µM
SK-OV-3 ovarian
  TGI: > 100 µM
HOP-92 NSCLC
  TGI: > 100 µM
UO-31 renal
  TGI: > 100 µM
BT-549 breast
  TGI: > 100 µM
UACC-257 melanoma
  TGI: > 100 µM
SF-268 CNS
  TGI: > 100 µM
IGROV1 ovarian
  TGI: > 100 µM
CAKI-1 renal
  TGI: > 100 µM
SK-MEL-28 melanoma
  TGI: > 100 µM
HL-60(TB) leukemia
  TGI: > 100 µM
OVCAR-5 ovarian
  TGI: > 100 µM
SNB-19 CNS
  TGI: > 100 µM
ACHN renal
  TGI: > 100 µM
T-47D breast
  TGI: > 100 µM
EKVX NSCLC
  TGI: > 100 µM
786-0 renal
  TGI: > 100 µM
OVCAR-3 ovarian
  TGI: > 100 µM
CCRF-CEM leukemia
  TGI: > 100 µM
K-562 leukemia
  TGI: > 100 µM
HS 578T breast
  TGI: > 100 µM
U251 CNS
  TGI: > 100 µM

## O=C1c2ccccc2C(=O)c2c(OCCOCCO)cccc21
TK-10 renal
  TGI: > 100 µM
KM12 colon
  TGI: > 100 µM
SF-295 CNS
  TGI: > 100 µM
DU-145 prostate
  TGI: > 100 µM
LOX IMVI melanoma
  TGI: > 100 µM
A549 NSCLC
  TGI: > 100 µM
OVCAR-4 ovarian
  TGI: > 100 µM
NCI-H23 lung
  TGI: > 100 µM
HT29 colon
  TGI: > 100 µM
HCT-116 colon
  TGI: > 100 µM
MALME-3M melanoma
  TGI: > 100 µM
NCI-H522 lung
  TGI: > 100 µM
HCT-15 colon
  TGI: > 100 µM
UACC-62 melanoma
  TGI: 19.1 µM
MCF7 breast
  TGI: > 100 µM
RXF 393 renal
  TGI: > 100 µM
SK-MEL-2 melanoma
  TGI: > 100 µM
SF-539 CNS
  TGI: > 100 µM
COLO 205 colon
  TGI: > 100 µM
SK-MEL-5 melanoma
  TGI: > 100 µM
M14 melanoma
  TGI: > 100 µM
NCI-H460 lung
  TGI: > 100 µM
SN12C renal
  TGI: 8.08 µM
NCI/ADR-RES ovarian
  TGI: > 100 µM
SW-620 colon
  TGI: > 100 µM
OVCAR-8 ovarian
  TGI: > 100 µM
MDA-MB-435
  TGI: > 100 µM
SNB-75 CNS
  TGI: > 100 µM
PC-3 prostate
  TGI: > 100 µM
SR leukemia
  TGI: > 100 µM
MDA-MB-231 breast
  TGI: > 100 µM
HOP-62 NSCLC
  TGI: > 100 µM
SK-OV-3 ovarian
  TGI: > 100 µM
HOP-92 NSCLC
  TGI: 96.9 µM
UO-31 renal
  TGI: > 100 µM
BT-549 breast
  TGI: > 100 µM
UACC-257 melanoma
  TGI: > 100 µM
SF-268 CNS
  TGI: > 100 µM
IGROV1 ovarian
  TGI: > 100 µM
CAKI-1 renal
  TGI: 74.2 µM
SK-MEL-28 melanoma
  TGI: > 100 µM
HL-60(TB) leukemia
  TGI: > 100 µM
OVCAR-5 ovarian
  TGI: > 100 µM
SNB-19 CNS
  TGI: > 100 µM
ACHN renal
  TGI: > 100 µM
T-47D breast
  TGI: > 100 µM
EKVX NSCLC
  TGI: > 100 µM
786-0 renal
  TGI: > 100 µM
OVCAR-3 ovarian
  TGI: > 100 µM
K-562 leukemia
  TGI: > 100 µM
HS 578T breast
  TGI: 99.7 µM
U251 CNS
  TGI: > 100 µM
MOLT-4 leukemia
  TGI: > 100 µM
